# Laboratory results reported in ChEMBL document CHEMBL5223177, “Pyrazole Ureas as Low Dose, CNS Penetrant Glucosylceramide Synthase Inhibitors for the Treatment of Parkinson's Disease” (ACS Med Chem Lett, 2023).
# Key:
# [1] = tested on: rat P-gp; test: Substrate activity at rat P-gp assessed as efflux ratio at 1 uM; format: ADME; conditions: not told
# [2] = target: T1, mouse BCRP (ABCG2) (Mus musculus, UniProt Q7TMS5); test: Substrate activity at mouse BCRP assessed as apparent permeability at 1 uM; format: ADME; conditions: not told
# T1 sequence (Q7TMS5 whole entry): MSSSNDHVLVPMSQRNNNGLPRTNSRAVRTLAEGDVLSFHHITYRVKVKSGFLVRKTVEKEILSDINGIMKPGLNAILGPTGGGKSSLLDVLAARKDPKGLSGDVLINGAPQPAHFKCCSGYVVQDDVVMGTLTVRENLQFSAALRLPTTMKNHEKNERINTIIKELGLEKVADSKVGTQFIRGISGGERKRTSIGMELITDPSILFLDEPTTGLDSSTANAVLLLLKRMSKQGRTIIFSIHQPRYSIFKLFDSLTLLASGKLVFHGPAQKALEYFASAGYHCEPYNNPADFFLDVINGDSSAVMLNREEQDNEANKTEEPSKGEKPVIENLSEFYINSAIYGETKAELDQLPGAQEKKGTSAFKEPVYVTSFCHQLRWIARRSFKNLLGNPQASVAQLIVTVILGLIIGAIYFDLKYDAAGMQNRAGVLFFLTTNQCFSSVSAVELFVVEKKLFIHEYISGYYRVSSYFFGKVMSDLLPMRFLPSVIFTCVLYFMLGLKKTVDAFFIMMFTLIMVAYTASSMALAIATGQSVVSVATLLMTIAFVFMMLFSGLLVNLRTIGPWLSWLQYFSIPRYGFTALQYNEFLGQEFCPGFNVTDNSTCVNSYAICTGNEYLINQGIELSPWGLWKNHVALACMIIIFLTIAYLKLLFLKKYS
# [3] = species: Homo sapiens; test: Selectivity ratio of IC50 for human 5HT3A to IC50 for GCS (unknown origin)
# [4] = Intrinsic clearance in rat at 5 to 10 mg/kg, po or 0.05 to 2 mg/kg, iv; format: ADME, organism-based; conditions: in vivo, dose 5-10 mg/kg
# [5] = Mean residence time in rat at 5 to 10 mg/kg, po or 0.05 to 2 mg/kg, iv; format: ADME, organism-based; conditions: in vivo, dose 5-10 mg/kg
# [6] = Bioavailability in rat at 5 to 10 mg/kg, po or 0.05 to 2 mg/kg, iv; format: ADME, organism-based; conditions: in vivo, dose 5-10 mg/kg
# [7] = Unbound fraction in rat plasma; format: ADME, cell-free
# [8] = Unbound fraction in human plasma; format: ADME, cell-free
# [9] = Lipophilicity, logD of compound by HPLC method; format: physicochemical
# [10] = Solubility of compound at pH 7 by HPLC method; format: physicochemical; conditions: buffer
# [11] = Unbound brain-to-plasma concentration ratio in rat at 5 mg/kg, po after 2 hrs; format: ADME, organism-based; conditions: read-out: K(p,uu,brain)
# [12] = target: Cytochrome P450 3A4 (Homo sapiens, UniProt P08684); test: Inhibition of CYP3A4 (unknown origin); format: ADME
# [13] = target: Cytochrome P450 2D6 (Homo sapiens, UniProt P10635); test: Inhibition of CYP2D6 (unknown origin); format: ADME
# [14] = target: T2, Nuclear receptor subfamily 1 group I member 2 (Homo sapiens, UniProt O75469); test: Activation of PXR (unknown origin)
# T2 sequence (O75469 whole entry): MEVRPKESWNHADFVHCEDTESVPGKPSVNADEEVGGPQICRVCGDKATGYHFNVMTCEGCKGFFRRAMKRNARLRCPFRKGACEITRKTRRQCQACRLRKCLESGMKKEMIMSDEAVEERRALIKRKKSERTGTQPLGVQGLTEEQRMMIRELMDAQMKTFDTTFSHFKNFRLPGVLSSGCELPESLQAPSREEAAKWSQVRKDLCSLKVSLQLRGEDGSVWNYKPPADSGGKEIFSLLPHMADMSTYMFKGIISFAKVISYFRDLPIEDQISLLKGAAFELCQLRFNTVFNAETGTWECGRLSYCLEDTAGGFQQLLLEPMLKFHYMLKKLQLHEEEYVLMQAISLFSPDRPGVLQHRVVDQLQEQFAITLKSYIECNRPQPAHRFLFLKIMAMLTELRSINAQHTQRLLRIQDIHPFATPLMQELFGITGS
# [15] = species: Homo sapiens; test: Inhibition of CYP2C9 (unknown origin) relative to control
# [16] = target: Voltage-gated inwardly rectifying potassium channel KCNH2 (Homo sapiens, UniProt Q12809); test: Inhibition of human ERG; format: toxicity
# [17] = target: T3, Muscarinic acetylcholine receptor M5 (Homo sapiens, UniProt P08912); test: Inhibition of human muscarinic M5 receptor
# T3 sequence (P08912 whole entry): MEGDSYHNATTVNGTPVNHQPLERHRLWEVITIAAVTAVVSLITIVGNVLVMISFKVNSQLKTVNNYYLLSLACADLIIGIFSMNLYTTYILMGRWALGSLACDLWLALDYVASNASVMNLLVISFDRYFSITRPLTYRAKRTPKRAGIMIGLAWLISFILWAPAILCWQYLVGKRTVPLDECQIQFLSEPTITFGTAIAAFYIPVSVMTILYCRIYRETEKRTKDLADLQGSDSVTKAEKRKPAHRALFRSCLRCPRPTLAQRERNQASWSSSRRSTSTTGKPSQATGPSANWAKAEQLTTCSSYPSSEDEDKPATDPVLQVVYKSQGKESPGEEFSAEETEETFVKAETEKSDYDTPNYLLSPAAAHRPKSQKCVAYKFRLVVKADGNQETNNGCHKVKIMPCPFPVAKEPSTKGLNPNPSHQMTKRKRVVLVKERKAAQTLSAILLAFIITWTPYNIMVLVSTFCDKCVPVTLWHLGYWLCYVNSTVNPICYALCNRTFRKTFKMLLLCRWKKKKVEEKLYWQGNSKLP
# [18] = target: Neuronal acetylcholine receptor subunit alpha-3 (Homo sapiens, UniProt P30926+P32297); test: Inhibition of human alpha3beta4 nAChR
# [19] = Clearance in rat; format: ADME; conditions: in vivo
# [20] = Unbound volume of distribution at steady state in rat; format: ADME; conditions: in vivo
# [21] = Half life in rat; format: ADME; conditions: in vivo
# [22] = Bioavailability in rat; format: ADME, organism-based; conditions: in vivo
# [23] = Clearance in dog; format: ADME, Canis lupus familiaris; conditions: in vivo
# [24] = Intrinsic clearance in dog; format: ADME, Canis lupus familiaris
# [25] = Unbound volume of distribution at steady state in dog; format: ADME, Canis lupus familiaris; conditions: in vivo
# [26] = Bioavailability in dog; format: ADME, organism-based, Canis lupus familiaris; conditions: in vivo
# Sequence of Cytochrome P450 3A4 (P08684 whole entry): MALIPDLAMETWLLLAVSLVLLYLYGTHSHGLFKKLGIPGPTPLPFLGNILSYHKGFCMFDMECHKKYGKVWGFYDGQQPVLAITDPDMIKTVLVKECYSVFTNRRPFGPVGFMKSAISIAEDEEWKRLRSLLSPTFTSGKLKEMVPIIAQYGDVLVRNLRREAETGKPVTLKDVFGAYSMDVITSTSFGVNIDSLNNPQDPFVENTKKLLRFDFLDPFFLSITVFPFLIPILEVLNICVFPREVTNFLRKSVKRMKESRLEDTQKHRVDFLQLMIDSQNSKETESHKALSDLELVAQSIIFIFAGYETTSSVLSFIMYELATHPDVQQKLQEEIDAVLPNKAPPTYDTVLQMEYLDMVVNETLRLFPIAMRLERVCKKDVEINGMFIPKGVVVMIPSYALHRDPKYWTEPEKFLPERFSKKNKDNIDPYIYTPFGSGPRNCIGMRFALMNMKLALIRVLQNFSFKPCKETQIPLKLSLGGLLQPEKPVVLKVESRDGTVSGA
# Sequence of Cytochrome P450 2D6 (P10635 whole entry): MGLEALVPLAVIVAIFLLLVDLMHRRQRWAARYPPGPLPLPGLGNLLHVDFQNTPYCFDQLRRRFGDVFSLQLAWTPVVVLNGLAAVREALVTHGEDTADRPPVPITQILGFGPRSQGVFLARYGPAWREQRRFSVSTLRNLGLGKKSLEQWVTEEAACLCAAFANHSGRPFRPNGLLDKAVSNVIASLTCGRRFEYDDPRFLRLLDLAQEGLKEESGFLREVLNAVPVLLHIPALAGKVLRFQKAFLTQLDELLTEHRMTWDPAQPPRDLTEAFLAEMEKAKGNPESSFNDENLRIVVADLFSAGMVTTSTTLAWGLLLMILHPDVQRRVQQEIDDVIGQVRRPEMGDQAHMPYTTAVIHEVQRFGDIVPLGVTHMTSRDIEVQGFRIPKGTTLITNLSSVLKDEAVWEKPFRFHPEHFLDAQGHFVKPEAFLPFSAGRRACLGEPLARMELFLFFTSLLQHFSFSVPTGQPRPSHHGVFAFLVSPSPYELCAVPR
# Sequence of Voltage-gated inwardly rectifying potassium channel KCNH2 (Q12809 whole entry): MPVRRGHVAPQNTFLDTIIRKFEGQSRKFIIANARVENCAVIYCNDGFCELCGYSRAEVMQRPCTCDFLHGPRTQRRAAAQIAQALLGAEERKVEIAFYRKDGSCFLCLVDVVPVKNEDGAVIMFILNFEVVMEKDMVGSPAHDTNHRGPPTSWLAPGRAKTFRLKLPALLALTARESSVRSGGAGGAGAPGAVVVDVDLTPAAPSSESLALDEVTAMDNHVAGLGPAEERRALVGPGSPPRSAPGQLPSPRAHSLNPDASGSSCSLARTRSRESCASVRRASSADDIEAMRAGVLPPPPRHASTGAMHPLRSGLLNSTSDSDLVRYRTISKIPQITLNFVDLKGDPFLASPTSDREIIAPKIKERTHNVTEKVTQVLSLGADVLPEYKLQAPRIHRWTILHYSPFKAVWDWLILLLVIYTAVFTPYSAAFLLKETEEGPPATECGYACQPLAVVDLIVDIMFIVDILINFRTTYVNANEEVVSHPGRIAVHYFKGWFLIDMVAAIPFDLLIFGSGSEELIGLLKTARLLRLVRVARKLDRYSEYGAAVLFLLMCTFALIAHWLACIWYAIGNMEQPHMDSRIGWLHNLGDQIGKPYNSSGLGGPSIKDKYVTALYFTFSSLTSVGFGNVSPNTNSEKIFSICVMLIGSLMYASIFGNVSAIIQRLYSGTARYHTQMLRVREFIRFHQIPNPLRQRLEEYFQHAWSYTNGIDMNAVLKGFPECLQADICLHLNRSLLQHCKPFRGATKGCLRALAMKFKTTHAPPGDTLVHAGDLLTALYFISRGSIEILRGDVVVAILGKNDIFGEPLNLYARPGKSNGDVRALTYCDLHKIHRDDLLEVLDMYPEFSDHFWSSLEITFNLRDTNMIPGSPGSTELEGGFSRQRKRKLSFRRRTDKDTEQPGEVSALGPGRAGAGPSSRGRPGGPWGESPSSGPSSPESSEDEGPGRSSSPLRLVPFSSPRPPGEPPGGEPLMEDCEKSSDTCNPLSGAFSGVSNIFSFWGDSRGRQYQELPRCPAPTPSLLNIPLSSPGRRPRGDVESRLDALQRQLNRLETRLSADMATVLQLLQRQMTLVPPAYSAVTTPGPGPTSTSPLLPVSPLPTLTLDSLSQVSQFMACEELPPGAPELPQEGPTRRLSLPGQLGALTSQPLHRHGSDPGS
# Sequence of Neuronal acetylcholine receptor subunit alpha-3 (P32297 whole entry, one chain of several): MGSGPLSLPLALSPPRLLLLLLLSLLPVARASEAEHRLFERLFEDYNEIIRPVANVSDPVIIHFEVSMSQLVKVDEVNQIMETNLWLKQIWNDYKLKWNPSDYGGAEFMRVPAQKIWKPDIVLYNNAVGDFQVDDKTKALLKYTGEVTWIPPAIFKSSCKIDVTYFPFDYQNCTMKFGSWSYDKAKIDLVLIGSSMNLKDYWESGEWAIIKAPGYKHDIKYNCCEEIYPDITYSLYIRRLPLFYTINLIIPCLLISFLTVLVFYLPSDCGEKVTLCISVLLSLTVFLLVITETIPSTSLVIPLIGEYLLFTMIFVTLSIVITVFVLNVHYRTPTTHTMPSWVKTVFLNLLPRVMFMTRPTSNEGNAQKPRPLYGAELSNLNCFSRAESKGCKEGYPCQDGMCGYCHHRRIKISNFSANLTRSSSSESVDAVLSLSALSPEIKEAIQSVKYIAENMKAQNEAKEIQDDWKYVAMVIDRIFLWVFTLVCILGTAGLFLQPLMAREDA
SMILES,efflux ratio at 1 µM [1],Papp at 1 µM [2] [×10⁻⁶ cm/s],Ratio IC50 [3],CL [4] [mL/min/kg],MRT [5] [h],bioavailability [6] [%],fraction unbound [7],fraction unbound [8],logD [9],solubility [10] [µM],Kp uu at 2 h [11],IC50 [12] [µM],IC50 [13] [µM],EC50 [14] [µM],Emax [15] [%],IC50 [16] [µM],IC50 [17] [µM],IC50 [18] [µM],clearance [19] [mL/min/kg],fVdss [20] [L/kg],further results
Cl.O=C(N1CCN2CCC1CC2)n1nc(-n2cc(C(F)(F)F)cn2)c2c1COCC2,4.6,31,1100,55,5.3,95,0.08,0.03,2.5,168,1.3,> 50,> 50,> 30,26,4.1,10.2,2.2,6.1,16,half-life [21]: 3.4 h; bioavailability [22]: 95%; clearance [23]: 12 mL/min/kg; CLint scaled [24]: 75 mL/min/kg; fVdss [25]: 49 L/kg; bioavailability [26]: 48%
O=C(N1CCN2CCC1CC2)n1nc(-c2ccc(F)cc2)c2c1COCC2,3.4,31,64,90,3.5,73,0.11,0.03,2.2,170,0.4,> 50,> 50,> 30,17,2,10.2,2.2,8.5,17,half-life [21]: 2.8 h; bioavailability [22]: 73%; clearance [23]: 30 mL/min/kg; CLint scaled [24]: 6870 mL/min/kg; fVdss [25]: 21 L/kg; bioavailability [26]: 21%
